The source of these data is US11596639B2, “Substituted indole Mcl-1 inhibitors” (Vanderbilt University, priority 2016, dated 2023).

Assay [1] has as its target T1, Mcl-1 (Homo sapiens (Human), UniProt Q07820). Kind of assay: Fluorescence polarization anisotropy (FPA) competition assay, FITC-Bak or FITC-Bim BH3 peptide. In kind it is binding. The note with it: read-out: Ki for Inhibition of Mcl-1 by FPA assay. (Polarisation of emitted light reports the rotation of a fluorescent probe.)
Assay [2] deals with H929 human cancer cell lines. Kind of assay: Cellular viability / proliferation (Cell TiterGlo, 72 h). In kind it is cell-based. Put shortly: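 1,000 cells/well, 10% FBS medium; compound added at 24 h, 2-fold dilutions from 50 μM top, DMSO <1% final. 72 h exposure, CellTiterGlo 30 min RT dark, luminescence read. IC50 by 4-parameter fit.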
(In general: Cellular ATP, detected with luciferase, serves as a proxy for viable cell number.)

Assay [3] addresses T1, Mcl-1. Kind of assay: TR-FRET binding assay, FITC-Bak peptide and MBP-tagged Mcl-1. To be noted: read-out: Ki for Inhibition of Mcl-1 by TR-FRET assay. The protocol:
Compounds are diluted in DMSO in a 16-point, semilog serial dilution scheme. […] The plate was mixed and incubated for 3 hours at room temperature. […] TR-FRET signal is plotted and IC50 and Ki values are calculated in the same manner as the fluorescence polarization anisotropy based competition assays.
In general terms: Time-resolved FRET reads energy transfer from a long-lived donor to a nearby acceptor.

Setting [4] is: Homo sapiens, NCI-H929, 72 h, read-out: GI50 on cellular proliferation of H929 human cancer cell lines, H929 cells, 72 h, Cell TiterGlo, 10% FBS.
Setting [5] is: H929 cells, 72 h, Cell TiterGlo, 10% FBS, read-out: GI50 on cellular proliferation of H929 human cancer cell lines.

Read-outs that look alike come from different tables or passages of the source.

The Ki is a measure of affinity in units of concentration, obtained from inhibition or displacement.

T1 sequence (Q07820 172-327): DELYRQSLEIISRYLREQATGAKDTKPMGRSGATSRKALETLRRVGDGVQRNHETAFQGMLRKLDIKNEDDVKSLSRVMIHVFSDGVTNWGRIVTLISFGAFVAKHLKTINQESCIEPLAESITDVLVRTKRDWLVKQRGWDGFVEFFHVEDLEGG

Take `Cc1cc(OCCCc2c3n(c4c(-c5c(C)nn(C)c5C)c(Cl)ccc24)[C@H](C)CN(c2cccc4c(C(=O)O)cn(Cc5cccnc5)c24)C3=O)cc(C)c1Cl` [Example 467, (R)-7-(7-Chloro-10-(3-(4-chloro-3,5-dimethylphenoxy)propyl)-4-methyl-1-oxo-6-(1,3,5-trimethyl-1H-pyrazol-4-yl)-3,4-dihydropyrazino[1,2-a]indol-2(1H)-yl)-1-(pyridin-3-ylmethyl)-1H-indole-3-carboxylic acid]: the Ki in assay [1] stood at 0.0013 µM. Besides, in assay [2] (setting [4]), the GI50 was 1.3 µM. The like results for `Cc1cc(OCCCc2c3n(c4c(-c5c(C)nn(C)c5C)c(Cl)ccc24)[C@H](C)CN(c2cccc4c(C(=O)O)cn(Cc5ccccn5)c24)C3=O)cc(C)c1Cl` [Example 468, (R)-7-(7-Chloro-10-(3-(4-chloro-3,5-dimethylphenoxy)propyl)-4-methyl-1-oxo-6-(1,3,5-trimethyl-1H-pyrazol-4-yl)-3,4-dihydropyrazino[1,2-a]indol-2(1H)-yl)-1-(pyridin-2-ylmethyl)-1H-indole-3-carboxylic acid] were, in that order, less than 0.001 µM and 0.26 µM. As to `Cc1cc(OCCCc2c3n(c4c(-c5c(C)nn(C)c5C)c(Cl)ccc24)[C@H](C)CN(c2cc(OC(F)(F)F)cc4cc(C(=O)O)[nH]c24)C3=O)cc(C)c1Cl` [Example 469, (R)-7-(7-Chloro-10-(3-(4-chloro-3,5-dimethylphenoxy)propyl)-4-methyl-1-oxo-6-(1,3,5-trimethyl-1H-pyrazol-4-yl)-3,4-dihydropyrazino[1,2-a]indol-2(1H)-yl)-5-(trifluoromethoxy)-1H-indole-2-carboxylic acid], the inhibition constant (Ki) in assay [1] turned out to be 0.0022 µM. Also, the GI50 in assay [2] (setting [4]) stood at 3.3 µM.

Consider `COCCn1c(C(=O)O)cc2cc(C)cc(N3C[C@@H](C)n4c(c(CCCOc5cc(C)c(Cl)c(C)c5)c5ccc(Cl)c(-c6c(C)nn(C)c6C)c54)C3=O)c21` [Example 470, (R)-7-(7-Chloro-10-(3-(4-chloro-3,5-dimethylphenoxy)propyl)-4-methyl-1-oxo-6-(1,3,5-trimethyl-1H-pyrazol-4-yl)-3,4-dihydropyrazino[1,2-a]indol-2(1H)-yl)-1-(2-methoxyethyl)-5-methyl-1H-indole-2-carboxylic acid], for which the Ki in assay [1] is less than 0.001 µM. Besides, the GI50 in assay [2] (setting [4]) was less than 0.2 µM.

Regarding `Cc1cc(OCCCc2c3n(c4c(-c5c(C)nn(C)c5C)c(Cl)ccc24)[C@H](C)CN(c2c[nH]c4ccc(-c5ncn(C)n5)cc24)C3=O)cc(C)c1Cl` [Example 471, (R)-7-chloro-10-(3-(4-chloro-3,5-dimethylphenoxy)propyl)-4-methyl-2-(5-(1-methyl-1H-1,2,4-triazol-3-yl)-1H-indol-3-yl)-6-(1,3,5-trimethyl-1H-pyrazol-4-yl)-3,4-dihydropyrazino[1,2-a]indol-1(2H)-one], in assay [1], the Ki stood at 0.0023 µM. For the same compound, the GI50 in assay [2] (setting [4]) was determined as 0.36 µM. The like results for `Cc1cc(OCCCc2c3n(c4c(-c5c(C)nn(C)c5C)c(Cl)ccc24)[C@H](C)CN(c2cccc4c(C(=O)O)cn(Cc5ccncc5)c24)C3=O)cc(C)c1Cl` [Example 472, (R)-7-(7-Chloro-10-(3-(4-chloro-3,5-dimethylphenoxy)propyl)-4-methyl-1-oxo-6-(1,3,5-trimethyl-1H-pyrazol-4-yl)-3,4-dihydropyrazino[1,2-a]indol-2(1H)-yl)-1-(pyridin-4-ylmethyl)-1H-indole-3-carboxylic acid] were, in that order, 0.0012 µM and 1.7 µM. The matching figures for `Cc1ccnc(Cn2c(C(=O)O)cc3cc(OC(F)(F)F)cc(N4C[C@@H](C)n5c(c(CCCOc6cc(C)c(Cl)c(C)c6)c6ccc(Cl)c(-c7c(C)nn(C)c7C)c65)C4=O)c32)c1` [Example 474, (R)-7-(7-Chloro-10-(3-(4-chloro-3,5-dimethylphenoxy)propyl)-4-methyl-1-oxo-6-(1,3,5-trimethyl-1H-pyrazol-4-yl)-3,4-dihydropyrazino[1,2-a]indol-2(1H)-yl)-1-((4-methylpyridin-2-yl)methyl)-5-(trifluoromethoxy)-1H-indole-2-carboxylic acid]: 0.017 µM and 1.2 µM. As for `Cc1cc(OCCCc2c3n(c4c(-c5c(C)nn(C)c5C)c(Cl)ccc24)[C@H](C)CN(c2cn(C)c4ccc(-c5ncn(CC6COC6)n5)cc24)C3=O)cc(C)c1Cl` [Example 475, (R)-7-Chloro-10-(3-(4-chloro-3,5-dimethylphenoxy)propyl)-4-methyl-2-(1-methyl-5-(1-(oxetan-3-ylmethyl)-1H-1,2,4-triazol-3-yl)-1H-indol-3-yl)-6-(1,3,5-trimethyl-1H-pyrazol-4-yl)-3,4-dihydropyrazino[1,2-a]indol-1(2H)-one], the Ki in assay [1] was 0.007 µM. Further, in assay [2] (setting [4]), the GI50 was 0.25 µM. Turning to `Cc1cc(OCCCc2c3n(c4c(-c5c(C)nn(C)c5C)c(Cl)ccc24)[C@H](C)CN(c2cc(CN4CCC(Oc5ccc(Cl)cc5)CC4)cc4c(C(=O)O)cn(C)c24)C3=O)cc(C)c1Cl` [Example 547, (R)-7-(7-chloro-10-(3-(4-chloro-3,5-dimethylphenoxy)propyl)-4-methyl-t-oxo-6-(1,3,5-trimethyl-1H-pyrazol-4-yl)-3,4-dihydropyrazino[1,2-a]indol-2(1H)-yl)-5-((4-(4-chlorophenoxy)piperidin-1-yl)methyl)-1-methyl-1H-indole-3-carboxylic acid], the inhibitory constant (Ki) in assay [3] was found to be 0.01 µM.

Turning to `Cc1cc(OCCCc2c3n(c4c(-c5c(C)nn(C)c5C)c(Cl)ccc24)[C@H](C)CN(c2cc(NC(=O)CCN4CCN(C)CC4)cc4c(C(=O)O)cn(C)c24)C3=O)cc(C)c1Cl` [Example 551, (R)-7-(7-chloro-10-(3-(4-chloro-3,5-dimethylphenoxy)propyl)-4-methyl-1-oxo-6-(1,3,5-trimethyl-1H-pyrazol-4-yl)-3,4-dihydropyrazino[1,2-a]indol-2(1H)-yl)-1-methyl-5(3-(4-methylpiperazin-1-yl)propanamido)-1H-indole-3-carboxylic acid], in assay [3], the Ki was found to be 0.0003 µM. For the compound `Cc1cc(OCCCc2c3n(c4c(-c5c(C)nn(C)c5C)c(Cl)ccc24)[C@H](C)CN(c2cc(NC(=O)CN4CCN(C)CC4)cc4c(C(=O)O)cn(C)c24)C3=O)cc(C)c1Cl` [Example 554, (R)-7-(7-chloro-10-(3-(4-chloro-3,5-dimethylphenoxy)propyl)-4-methyl-1-oxo-6-(1,3,5-trimethyl-1H-pyrazol-4-yl)-3,4-dihydropyrazino[1,2-a]indol-2(1H)-yl)-1-methyl-5-(2-(4-methylpiperazin-1-yl)acetamido)-1H-indole-3-carboxylic acid], in assay [3], the Ki was found to be 0.00026 µM.

With “(R)-3-(7-chloro-10-(3-(4-chloro-3,5-dimethylphenoxy)propyl)-6-(3,5-dimethyl-1-((1-methylpiperidin-4-yl)methyl)-1H-pyrazol-4-yl)-4-methyl-1-oxo-3,4-dihydropyrazino[1,2-a]indol-2(1H)-yl)-1-methyl-1H-indole-5-carboxylic acid [Example 146]”, the Ki in assay [1] was 0.004 µM. Further, the GI50 in assay [2] (setting [5]) worked out at 2.4 µM.

With “(R)-4-(7-chloro-10-(3-(4-chloro-3,5-dimethylphenoxy)propyl)-4-methyl-1-oxo-6-(1,3,5-trimethyl-1H-pyrazol-4-yl)-3,4-dihydropyrazino[1,2-a]indol-2(1H)-yl)-2-methyl-2H-indazole-1-carboxylic acid [Example 97]”, the Ki in assay [1] is less than 0.001 µM. Moreover, the GI50 in assay [2] (setting [5]) turned out to be 3.4 µM.
